This note sets out measurements from ChEMBL document CHEMBL3507680, “University of Dundee, Gates Library screen for HepG2 cell viability”.

Each structure is given as a SMILES string.

The data set in a line: Human HepG2 cell viability assay in 384 well format. The class given is toxicity, cell-based. On the set-up: dose 125 nL, time 70.5 hour; concentration not given beside the values. Conditions: HepG2 cells, read-out: Inhibition.

Take `CSc1ccccc1C(=O)C1CCCN(Cc2ccccn2)C1` (centres undefined): the cytotoxicity at 70.5 h is -2.76%.
For the molecule `O=C(CCNS(=O)(=O)c1ccc2c(c1)CCCC2)NCc1ccoc1`, the cytotoxicity at 70.5 h is -11.5%.
The result for `CN(C)CCn1c(=O)oc2ccc(NC(=O)CC(C)(C)C)cc21` reads -6.79%.
For `CCN(C)c1ccc(C(=O)N(CCOC)Cc2ccccn2)cc1`, the cytotoxicity at 70.5 h turned out to be 14.7%.
Turning to `CN(C)CCn1c(=O)oc2ccc(NC(=O)C3CCCO3)cc21` (centres undefined), the cytotoxicity at 70.5 h is 1.22%.
The same measure for `O=C(NCc1ccncc1)N(Cc1ccccc1F)C1CC1`: 13%.
The result for `Cc1cc(C)n(CC2CCCCN2CC(=O)Nc2nncs2)n1` (centres undefined) reads -7.4%; that for `CN(C)C(=O)CN(C)C(=O)c1cnc(Cc2ccc(F)cc2)s1`, -0.843%.
Take `Cc1ccc(CNC(=O)N(Cc2ccccc2F)C2CC2)cn1`: the cytotoxicity at 70.5 h was -1.38%.
The same measure for `CCC(=O)NCc1cc(Br)c(OC)c(OC)c1`: -0.621%; for `COc1ccccc1OCCN1CCCC(c2noc(C3CC3)n2)C1` (centres undefined): -0.413%.
With `Cc1oc(C(=O)O)cc1S(=O)(=O)Nc1c(F)cccc1-n1cccn1`, the cytotoxicity at 70.5 h is -0.99%.
For the molecule `Cc1cnc(C(=O)N2CCN3C[C@H](OCc4cccnc4)C[C@H]3C2)cn1`, the cytotoxicity at 70.5 h was -9.39%.
The same measure for `CCS(=O)(=O)N1CCC2(CC1)CN(c1ccsc1)C(=O)CO2`: -11.6%.
With `CCOC[C@@H]1CCC[C@@]12CN(Cc1cccnc1)CCO2`, the cytotoxicity at 70.5 h was -5.78%.
The same measure for `Cn1cc(C[C@H]2[C@H](O)CCN2C(=O)c2ccsc2)cn1`: -4.72%.
`Cn1cc(-c2cnc(N3CCOCC3)nc2)cc1C(=O)NC1CC1`: the cytotoxicity at 70.5 h stood at 23.6%.
Turning to `CC(C)NC(=O)[C@@H]1CN(Cc2nccs2)C[C@H]2OCC[C@H]21`, the cytotoxicity at 70.5 h turned out to be 36%.
The same measure for `COCC1CN(C(=O)c2ccc(C)o2)Cc2nccn2C1` (centres undefined): 14.4%; for `COCC(=O)N1CCN(CC2CC2)c2ncccc2C1`: 15.5%.
With `CN(C)C(=O)CN1CCC2(CCCN(Cc3ccoc3)C2)C1=O` (centres undefined), the cytotoxicity at 70.5 h was -13.2%.
The result for `CC(C)C(=O)N1CCOC2(COCCN(c3ncccn3)C2)C1` (centres undefined) reads -11.8%.
Take `Cc1ccc(CN2CCC3(CCCN(S(C)(=O)=O)C3)C2)o1` (centres undefined): the cytotoxicity at 70.5 h is -12.7%.
With `CCN1CCc2nc(N3CCOCC3)nc(NC(C)C)c2C1`, the cytotoxicity at 70.5 h is -9.45%.
For `Cc1ccc(CN2CCCC3(CCN(Cc4ccc(C)o4)C3)C2)o1` (centres undefined), the cytotoxicity at 70.5 h was -11.5%.
Consider `CN(C)CC(=O)N1CCC2(CC1)COCCN(Cc1ccncc1)C2`, for which the cytotoxicity at 70.5 h is -8.72%.
Regarding `CN(C)C(=O)N1CCCC2(CCN(c3ccsc3)C2=O)C1` (centres undefined), the cytotoxicity at 70.5 h was -6.16%.
With `Cc1nc(NCC2CC2)nc2c1COCC21CCNC1` (centres undefined), the cytotoxicity at 70.5 h is 5.46%.
The result for `CC(C)N(C)Cc1cn2c(n1)CN(C(=O)c1ccc[nH]1)CC2` reads -5.19%; that for `Cn1nccc1C(=O)N1CCN(C(=O)C2CC2)[C@@H]2CS(=O)(=O)C[C@@H]21`, -5.45%.
Regarding `CC(C)SCCn1ccc2[nH]c(=O)c(C#N)cc2c1=O`, the cytotoxicity at 70.5 h was -8.8%.
The result for `Cn1nc(CN2CCCN(C3CCCC3)CC2)c2c(Cl)cccc21` reads -6.04%; that for `COc1cc2c(cc1C1CC(=O)NCc3nc(N(C)C)sc31)CCC2` (centres undefined), 0.498%; that for `CCn1nc(C)c(CCn2ccnc2-c2cc3n(n2)CCNC3)c1C`, -0.934%.
The same measure for `CCN(CCOc1ccc(F)cc1)C(=O)c1ccncc1Cl`: -2.29%; for `COCC(O)CNC(=O)c1cc(COc2ccc3c(c2)CCCC3)on1` (centres undefined): -4.42%.
The result for `CC(CCN1CCC(n2cc(CCO)nn2)CC1)c1ccccc1` (centres undefined) reads -8.84%.
As to `CCN1CC(CN(C)Cc2nc(-c3cccc(Cl)c3)oc2C)CC1=O` (centres undefined), the cytotoxicity at 70.5 h is -6.94%.
The result for `O=C(CCc1cc(Cl)no1)N1CCN(CCn2cncn2)CC1` reads -0.942%; that for `COc1cccc2c1OCC(NCCCOc1cccnc1)C2` (centres undefined), -5.15%; that for `CCC(C)NC(=O)c1coc(COc2cccc(F)c2)n1` (centres undefined), -3.12%.
The same measure for `CC(=O)N1CCCC(C(=O)NCCc2nc(Cc3ccccc3)no2)C1` (centres undefined): -13.3%; for `CSCc1noc(CNC(=O)C2CCN(C(=O)C3CC3)CC2)n1`: -17.4%.
The same measure for `Cc1cc2nc(C(C)C)cc(N3CCC(O)CC3)n2n1`: -9.55%; for `COCCN(Cc1cnn(C)c1)CC1CCOC1` (centres undefined): -6.85%.
Take `CCc1c(C(=O)N2CCC3(CC(=O)NC3=O)C2)csc1C` (centres undefined): the cytotoxicity at 70.5 h was -5.51%.
As to `CCN1CCN(C[C@@H]2CN(c3ncccc3F)C[C@@H]2CO)CC1`, the cytotoxicity at 70.5 h was found to be 23.4%.
The result for `NS(=O)(=O)c1ccc(F)c(C(=O)NCCSc2ccccn2)c1` reads -4.06%; that for `COCCCC1CCN([C@@H]2c3ccccc3C3(CCNCC3)[C@H]2O)CC1`, -1.24%.
Turning to `COc1cccc(-n2cc(-c3ccnc(N[C@@H](CO)C(C)C)n3)cn2)c1`, the cytotoxicity at 70.5 h was determined as 13.3%.
The same measure for `Cc1cccc2[nH]c(C3CCN(C(=O)c4cnc[nH]c4=O)CC3)nc12`: -1.84%; for `CC(C)(C)C(=O)N1CCCC1c1ccc(C(=O)N2CCOCC2)s1` (centres undefined): 16.2%; for `CCNc1ncc(C(=O)NCCNc2ccncc2C)cn1`: 3.69%.
Turning to `COc1ccc(Cc2nc3c([nH]2)CC(C)(C)CNC3=O)cc1OC`, the cytotoxicity at 70.5 h was -8.64%.
On to `CCCc1cc(C(=O)N2CCC3(CC2)CN(CCN(C)C)C(=O)O3)no1`, for which the cytotoxicity at 70.5 h was -0.0862%.
The same measure for `CN(C)C(=O)c1cn2cc(-c3cccc(Cl)c3)n(CC3CC3)c(=O)c2n1`: -5.52%; for `CSc1ccccc1C(=O)N(C)C1CCCN(CCc2ccccc2)C1` (centres undefined): -5.22%.
In the case of `COC(=O)NCC(=O)N1CCCn2nc(CN3CC[C@H](F)C3)cc2C1`, the cytotoxicity at 70.5 h was -3.88%.
The same measure for `O=C(N[C@H]1CN(c2nc(CO)cs2)C[C@@H]1C1CC1)C1CCCCC1`: -6.79%; for `COc1ccccc1-n1nc(-c2ccco2)n(CC(=O)NC2CC2)c1=O`: 10.2%; for `Cc1cc(NCc2ccc(C#N)cc2)n2nc(C)cc2n1`: -4.7%.
For `CC(C)N1CCC(C(=O)N2CCN(c3cccc(C(=O)O)c3)CC2)CC1`, the cytotoxicity at 70.5 h is -9.74%.
The result for `Cc1noc(C)c1CN1C[C@@H]2COC[C@@H](C(=O)N3CCCCO3)[C@@H]2C1` reads -8.21%; that for `Cc1cc(CN2C[C@@H]3COC[C@H](C(=O)N4CCCCO4)[C@@H]3C2)oc1C`, -11%; that for `Cc1cc(CN2C[C@@H]3COC[C@@H](C(=O)N4CCCCO4)[C@@H]3C2)oc1C`, -6.96%.
The same measure for `Cc1ccsc1C(=O)N1CC[C@@H](N(C)C)[C@@H]1Cc1cnn(C)c1`: -11.2%; for `CN(C)[C@@H]1CCN(C(=O)Cc2cccs2)[C@H]1Cc1cnn(C)c1`: -8.18%; for `CN(C)C(=O)c1cnc2n1CCN(Cc1ccc3c(c1)OCO3)C2`: -7.97%.
On to `Cn1cc(-c2cnc(N3CCOCC3)nc2)cc1C(=O)NCCC#N`, for which the cytotoxicity at 70.5 h is -9.71%.
Turning to `O=C(c1ccco1)N1CCO[C@@H]2CN(CC3CC3)CC[C@@H]2C1`, the cytotoxicity at 70.5 h came to 28%.
For the molecule `Cc1cc(C(=O)N2CCO[C@H]3[C@H](Oc4ccccn4)CC[C@@H]32)c(C)[nH]1`, the cytotoxicity at 70.5 h was -8.01%.
Regarding `Cc1ccc(C(=O)N2CC[C@H]3[C@@H]2CCC(=O)N3c2cccnc2)o1`, the cytotoxicity at 70.5 h is -13.5%.
The same measure for `c1csc(CN2CCCn3nnc(COCC4CC4)c3C2)n1`: -11%.
The result for `COCC1CN(C(=O)c2cccc(C)n2)Cc2nccn2C1` (centres undefined) reads -10.2%.
`Cc1cccc(CN2CCCC3(CCN(CC(=O)N(C)C)C3=O)C2)n1` (centres undefined): the cytotoxicity at 70.5 h was -13.1%.
Turning to `Cn1cc(CN2C[C@@H]3COC[C@]3(CNC(=O)c3ccco3)C2)cn1`, the cytotoxicity at 70.5 h was -10.1%.
In the case of `Cc1cc(CN2C[C@@H]3COC[C@]3(CNC(=O)c3ccco3)C2)no1`, the cytotoxicity at 70.5 h was -7.96%.
The result for `COCCNC(=O)[C@H]1C[C@@H]2CCN(CCc3ccccc3)C[C@@H]2O1` reads -4.71%.
On to `COCCC(=O)N1CC2(CCN(Cc3ccccc3Cl)CC2)C1`, for which the cytotoxicity at 70.5 h worked out at 12.5%.
The same measure for `CN(C)CCN1C(=O)CC[C@@H]2[C@H]1CCN2Cc1cccc(C#N)c1`: -8.56%; for `Cc1ccc(C(=O)N2CC[C@@H](N(C)C)[C@@H]2Cc2cnn(C)c2)cn1`: -10.1%; for `N#Cc1cccc(CN2CC[C@@H]3[C@@H]2CC(=O)N3Cc2ccncc2)c1`: -3.67%.
On to `COCCN1C[C@@H]2[C@@H](OC)CCN(S(=O)(=O)c3cccnc3)[C@@H]2C1`, for which the cytotoxicity at 70.5 h was -12.3%.
The result for `Cc1cncc(C(=O)N2CCO[C@H]3[C@H](Oc4ccccn4)CC[C@@H]32)c1` reads -12.4%; that for `Cn1cccc1C(=O)NCc1cn2c(n1)CN(Cc1cccnc1)CC2`, -12.8%; that for `CN(C)CCN1CCC2(CCCN(Cc3cccn3C)C2)C1=O` (centres undefined), -11.1%.
The result for `O=C(C1CCCO1)N1CCC2(CC1)COCCN(Cc1ccncc1)C2` (centres undefined) reads -9.52%.
With `Cc1ccc2c(n1)N(CCN(C)C)CCN(C(=O)c1cscn1)C2`, the cytotoxicity at 70.5 h is -7.14%.
The same measure for `c1cncc(COC[C@H]2CC[C@H]3[C@H](CCN3Cc3nccs3)O2)c1`: -0.559%.
The result for `c1ccc(CN2CC[C@@H]3O[C@@H](COCCN4CCCC4)CC[C@@H]32)nc1` reads -13.6%; that for `Cc1ccc(CN2CCOC3(COCCN(Cc4ccncc4)C3)C2)o1` (centres undefined), -13.7%; that for `CN(C)CCN1CCOCC2(C1)CN(Cc1ccco1)CCO2` (centres undefined), -17.1%.
The same measure for `Cc1cc(C)cc(CN2C[C@H]3COC[C@H](N4CCN(C)CC4)[C@H]3C2)c1`: -6.19%.
As to `Fc1cccc(N2CCCC3(CN(Cc4cccnc4)CCO3)C2)c1` (centres undefined), the cytotoxicity at 70.5 h is -6.89%.
